The source of these data is patent US6693165B2 (Merck & Co., Inc., priority 2000, dated 2004).

Numbered stars: 1 amine (or outer) side, 2 acyl side, 3 side chain; on linkers, the order of the positions; unused ones are H or OH. Bridge positions count the residues as written; N and C are the ends. Square brackets hold non-standard residues; d marks the D form. Peptide text beside a SMILES is read from it. dPhe(4-tBu) = CC(C)(C)c1ccc(C[C@@H](N)C(=O)O)cc1; dPhe(4-Cl) = N[C@H](Cc1ccc(Cl)cc1)C(=O)O; dPhe(4-F) = N[C@H](Cc1ccc(F)cc1)C(=O)O; d2Nal = N[C@H](Cc1ccc2ccccc2c1)C(=O)O; Maleoyl = O=C(/C=C\C(=O)[*:2])[*:1]; dBta = N[C@H](Cc1csc2ccccc12)C(=O)O; Suc = O=C(CCC(=O)[*:2])[*:1]; Dap = NC[C@H](N)C(=O)O

Assay [1] addresses T1, human MC4 receptor (Homo sapiens, UniProt P32245).
T1 construct: expressed in transfected cells; host or cells: Chinese hamster ovary (CHO) cells
In words: Competitive binding assay, human MC4 receptor. The following applies: for IC50: CHO cell membranes expressing human MC4 receptor, 200 pM [125I]-NDP-α-MSH, three independent experiments, read-out: hMC-4R (binding data); for 3:4: selectivity ratio of hMC-3R to hMC-4R binding values; for 5:4: selectivity ratio of hMC-5R to hMC-4R binding values. As to the method: (§1) The peptides of the present invention were evaluated for antagonist activity in receptor binding assay. Crude membrane preparations were obtained from Chinese hamster ovary cells expressing human MC3, MC4, and MC5 receptors. Cells were rinsed with phosphate-buffered saline (PBS) lacking CaCl2 or MgCl2 (Life Technologies, Gaithersburg, Md., USA), and then detached with enzyme-free dissociation media (Specialty Media, Lavellette, N.J., USA). Cells were pelleted at 2800×g for 10 min and resuspended in membrane buffer (20 mM Tris, pH 7.2, 5 mM ethylenediaminetetraacetic acid) with 5 μg/ml leupeptin, 5 μg/ml aprotinin, 40 μg/ml bacitracin, and 25 μg/ml pefabloc (Boehringer Mannheim). The cells were […] with 10 strokes by using a motor-driven Teflon-coated pestle in a glass homogenizer at low speed. The resulting cell suspension was centrifuged at 4100×g, 4° C., for 20 min. The pellet was resuspended in fresh membrane buffer with protease inhibitors, aliquoted, snap-frozen in liquid nitrogen, and stored at −80° C. The resulting crude membranes were titrated to determine the optimal level necessary for performing binding studies.
(§2) Binding reactions (total volume=250 μl) contained MBB (50 mM Tris, pH 7.2, 2 mM CaCl2, 1 mM MgCl2), 0.1% bovine serum albumin, crude membranes prepared from cells expressing human MC3, MC4, or MC5 receptor, 200 pM of [125I]-NDP-α-MSH (Amersham, Arlington Heighs, Ill., USA), and increasing concentrations of unlabeled test compounds dissolved in dimethylsulfoxide (final concentration=2%). Reactions were incubated for 1 h without shaking and then filtered through 96-well filter plates (Packard), presoaked in 1% polyethyleneimine. Filters were washed 3 times with TNE buffer (50 mM Tris, pH 7.4, 5 mM ethylene-diaminetetraacetic acid, 150 mM NaCl), dried and counted by using Microscint-20 in a Topcount scintillation counter (Packard).

The target in assay [2] is T2, human MC5 receptor (Homo sapiens, UniProt P33032).
T2 construct: expressed in transfected cells; host or cells: Chinese hamster ovary (CHO) cells
T2 sequence (P33032 whole entry): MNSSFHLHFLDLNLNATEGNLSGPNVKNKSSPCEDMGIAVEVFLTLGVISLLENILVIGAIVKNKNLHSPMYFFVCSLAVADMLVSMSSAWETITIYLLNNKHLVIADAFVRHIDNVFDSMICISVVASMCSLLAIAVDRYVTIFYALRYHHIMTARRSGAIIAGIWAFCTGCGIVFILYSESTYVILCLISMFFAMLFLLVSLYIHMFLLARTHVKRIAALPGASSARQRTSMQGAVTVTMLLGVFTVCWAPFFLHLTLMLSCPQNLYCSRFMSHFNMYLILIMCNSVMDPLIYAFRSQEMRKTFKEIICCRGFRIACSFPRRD
Description: Competitive binding assay, human MC5 receptor. To be noted: CHO cell membranes expressing human MC5 receptor; 200 pM [125I]-NDP-α-MSH; three independent experiments; read-out: hMC-5R (binding data). As to the method: as §1, §2

For assay [3], the target named is human MC3 receptor (Homo sapiens, UniProt P41968). Description: Competitive binding assay, human MC3 receptor. The following applies: hMC-3R (binding data), CHO cell membranes expressing human MC3 receptor; 200 pM [125I]-NDP-α-MSH; three independent experiments.
Chain of human MC3 receptor (P41968 whole entry): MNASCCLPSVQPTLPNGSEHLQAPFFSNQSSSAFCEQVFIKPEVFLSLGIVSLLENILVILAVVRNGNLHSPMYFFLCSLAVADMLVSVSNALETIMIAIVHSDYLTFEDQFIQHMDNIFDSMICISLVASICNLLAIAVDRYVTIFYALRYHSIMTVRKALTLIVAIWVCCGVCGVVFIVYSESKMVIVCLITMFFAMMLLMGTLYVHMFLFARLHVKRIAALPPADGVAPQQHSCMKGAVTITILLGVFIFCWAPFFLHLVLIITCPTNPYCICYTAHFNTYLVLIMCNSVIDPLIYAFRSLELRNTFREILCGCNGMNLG
The conditions of assay [4]: rats; cited from earlier work.

T1 sequence (P32245 whole entry): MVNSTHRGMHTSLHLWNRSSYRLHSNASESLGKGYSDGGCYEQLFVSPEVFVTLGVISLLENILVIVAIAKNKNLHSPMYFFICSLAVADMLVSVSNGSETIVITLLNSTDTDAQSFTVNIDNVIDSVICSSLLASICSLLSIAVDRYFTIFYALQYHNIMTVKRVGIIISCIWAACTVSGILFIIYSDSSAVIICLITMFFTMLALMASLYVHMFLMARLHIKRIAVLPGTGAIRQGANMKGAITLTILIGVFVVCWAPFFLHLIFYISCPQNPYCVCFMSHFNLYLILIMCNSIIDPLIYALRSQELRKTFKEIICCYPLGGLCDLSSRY

As to `CC(C)(C)c1ccc(C[C@H]2NC(=O)CCC(=O)NCCCC[C@@H](C(N)=O)NC(=O)[C@H](Cc3c[nH]c4ccccc34)NC(=O)[C@H](CCCNC(=N)N)NC2=O)cc1` [Example 14] ([dPhe(4-tBu)]RWK-NH2; linker N-4 via Suc), the results for the IC50 in assay [1], in assay [2] and in assay [3] were 46 ± 6 nM, 2500 ± 1000 nM and 1500 ± 1100 nM, respectively. Moreover, the “3:4” value in assay [1] turned out to be 37. Also, in assay [1], the “5:4” value was 54.
In the case of `N=C(N)NCCC[C@@H]1NC(=O)[C@@H](Cc2ccc3ccccc3c2)NC(=O)C2CC2C(=O)NCCCC[C@@H](C(N)=O)NC(=O)[C@H](Cc2c[nH]c3ccccc23)NC1=O` (single isomer, unassigned) [11 a], in assay [1], the IC50 came to 0.6 ± 0.1 nM, the “3:4” value is listed as 216 and the “5:4” value is recorded as 316. The IC50 in assay [2] amounted to 190 ± 37 nM. The same molecule returned an IC50 in assay [3] of 130 ± 16 nM.
The matching figures for `N=C(N)NCCC[C@@H]1NC(=O)[C@@H](Cc2ccc3ccccc3c2)NC(=O)[C@H](Cc2c[nH]cn2)NC(=O)[C@@H](N)CC(=O)NCCCC[C@@H](C(N)=O)NC(=O)[C@H](Cc2c[nH]c3ccccc23)NC1=O` [Example 3]: 1.7 ± 0.8 nM, 9, 14, 24 ± 6.7 nM and 16 ± 5.2 nM.
The matching figures for `N=C(N)NCCC[C@@H]1NC(=O)[C@@H](Cc2ccc(Cl)cc2)NC(=O)CCC(=O)NCCCC[C@@H](C(N)=O)NC(=O)[C@H](Cc2c[nH]c3ccccc23)NC1=O` [Example 17] ([dPhe(4-Cl)]RWK-NH2; linker N-4 via Suc): 3.5 ± 0.3 nM, 163, 126, 440 ± 240 nM and 570 ± 290 nM.
Consider MTII, for which the food intake result in assay [4] is given as “reduced”.
On to SHU9119, for which, in assay [4], the body weight result is listed as “increased” and the food intake result is on record as “increased”.
As for `N=C(N)NCCC[C@@H]1NC(=O)[C@@H](Cc2ccc(F)cc2)NC(=O)CCC(=O)NCCCC[C@@H](C(N)=O)NC(=O)[C@H](Cc2c[nH]c3ccccc23)NC1=O` [Example 19] ([dPhe(4-F)]RWK-NH2; linker N-4 via Suc), the IC50 in assay [1] stood at 70 ± 10 nM; in assay [2] it was 10000 ± 2000 nM; in assay [3], 4800 ± 1000 nM. Moreover, the “3:4” value in assay [1] is 69. The “5:4” value in assay [1] is 143.
For HS024, in assay [4], the body weight entry is “increase” and the food intake result was “increase”.
Take `N=C(N)NCCC[C@@H]1NC(=O)[C@@H](Cc2ccc3ccccc3c2)NC(=O)C2CC2C(=O)NCCCC[C@@H](C(N)=O)NC(=O)[C@H](Cc2c[nH]c3ccccc23)NC1=O` (single isomer, unassigned) [11 b]: the values for the IC50 in assay [1], in assay [2] and in assay [3] were 1.6 ± 0.2 nM, 540 ± 230 nM and 270 ± 24 nM, respectively. Moreover, in assay [1], the “3:4” value stood at 168. Besides, in assay [1], the “5:4” value was 337.
Consider `N=C(N)NCCC[C@@H]1NC(=O)[C@@H](Cc2ccc3ccccc3c2)NC(=O)[C@H](CCCCN)NC(=O)CCC(=O)NCCCC[C@@H](C(N)=O)NC(=O)[C@H](Cc2c[nH]c3ccccc23)NC1=O` [Example 24] (K[d2Nal]RWK-NH2; linker N-5 via Suc), for which the IC50 was found to be 40 ± 5 nM in assay [1], 10000 ± 8700 nM in assay [2] and 3000 ± 1100 nM in assay [3]. The “3:4” value in assay [1] is 75. In addition, the “5:4” value in assay [1] came out at 250.
On to `N=C(N)NCCC[C@@H]1NC(=O)[C@@H](Cc2csc3ccccc23)NC(=O)CCC(=O)NCCCC[C@@H](C(N)=O)NC(=O)[C@H](Cc2c[nH]c3ccccc23)NC1=O` [Example 16] ([dBta]RWK-NH2; linker N-4 via Suc), for which, in assay [1], the IC50 worked out at 69 ± 12 nM, the “3:4” value amounted to 81 and the “5:4” value was 44. For the same molecule, in assay [2], the IC50 was 3000 ± 1000 nM. The molecule also registered an IC50 in assay [3] of 5600 ± 3900 nM.
For the molecule `N=C(N)NCCC[C@@H]1NC(=O)[C@@H](Cc2ccc3ccccc3c2)NC(=O)[C@H](Cc2c[nH]cn2)NC(=O)CCC(=O)NCCCC[C@@H](C(N)=O)NC(=O)[C@H](Cc2c[nH]c3ccccc23)NC1=O` [Example 7] (H[d2Nal]RWK-NH2; linker N-5 via Suc), in assay [1], the IC50 was found to be 1 ± 0.1 nM, the “3:4” value worked out at 52 and the “5:4” value was found to be 200. Moreover, the IC50 in assay [2] turned out to be 200 ± 3.6 nM. In assay [3], this molecule came in with an IC50 of 52 ± 7.9 nM.
Take `NCCCC[C@@H]1NC(=O)[C@@H](Cc2ccc3ccccc3c2)NC(=O)CCC(=O)NCCCC[C@@H](C(N)=O)NC(=O)[C@H](Cc2c[nH]c3ccccc23)NC1=O` [Example 20] ([d2Nal]KWK-NH2; linker N-4 via Suc): in assay [1], the IC50 stood at 44 ± 7 nM, the “3:4” value is given as 84 and the “5:4” value stood at 48. In assay [2], the IC50 worked out at 2100 ± 500 nM. For the same molecule, the IC50 in assay [3] came out at 3700 ± 1200 nM.
On to `CC(=O)N[C@H]1CC(=O)NCCCC[C@@H](C(N)=O)NC(=O)[C@H](Cc2c[nH]c3ccccc23)NC(=O)[C@H](CCCNC(=N)N)NC(=O)[C@@H](Cc2ccc3ccccc3c2)NC1=O` [Example 6] (Ac-D[d2Nal]RWK-NH2; lactam 1-5), for which, in assay [1], the IC50 worked out at 4.7 ± 0.6 nM, the “3:4” value is reported as 46 and the “5:4” value is reported as 234. In assay [2], the IC50 was determined as 1100 ± 150 nM. Moreover, in assay [3], the IC50 was found to be 220 ± 6.7 nM.
For `N=C(N)NCCC[C@@H]1NC(=O)[C@@H](Cc2ccc3ccccc3c2)NC(=O)[C@H](Cc2c[nH]cn2)NC(=O)CCC(=O)NC[C@@H](C(N)=O)NC(=O)[C@H](Cc2c[nH]c3ccccc23)NC1=O` [Example 8] (H[d2Nal]RW[Dap]-NH2; linker N-5 via Suc) the same measures were 0.2 ± 0.03 nM, 95, 355, 71 ± 8.4 nM and 19 ± 1.5 nM.
`N=C(N)NCCC[C@@H]1NC(=O)[C@@H](Cc2ccc3ccccc3c2)NC(=O)/C=C\C(=O)NCCCC[C@@H](C(N)=O)NC(=O)[C@H](Cc2c[nH]c3ccccc23)NC1=O` [Example 12] ([d2Nal]RWK-NH2; linker N-4 via Maleoyl): in assay [1], the “3:4” value is listed as 300 and the “5:4” value stood at 270.
